ED50 ratio data for four compounds are collected here from ChEMBL document CHEMBL1127241, “Taxol photoaffinity labels 2. Synthesis and biological evaluation of N-(4-azidobenzoyl)-N-debenzoyltaxol, N-(4-azido-2,3,5,6-tetrafluorobenzoyl)-N-debenzoyltaxol, and 7-(4-azido-2,3,5,6-tetrafluorobenzoyl)taxol” (1994).

One assay deals with B16. In words: Concentration which produces 50% inhibition of proliferation of B16 melanoma cells after 40 hr incubation expressed as ED50 ratio relative to taxol. It counts as functional, Mus musculus.
Assay [1] addresses Tubulin alpha chain (Sus scrofa) (UniProt P02550). In words: Concentration which causes polymerization of 50% of the tubulin present in 15 min at 37 degree Celsius (stimulation of microtubule assembly) expressed as ED50 ratio relative to taxol. It counts as functional.

Tubulin alpha chain (Sus scrofa), sequence (P02550 whole entry, looked up): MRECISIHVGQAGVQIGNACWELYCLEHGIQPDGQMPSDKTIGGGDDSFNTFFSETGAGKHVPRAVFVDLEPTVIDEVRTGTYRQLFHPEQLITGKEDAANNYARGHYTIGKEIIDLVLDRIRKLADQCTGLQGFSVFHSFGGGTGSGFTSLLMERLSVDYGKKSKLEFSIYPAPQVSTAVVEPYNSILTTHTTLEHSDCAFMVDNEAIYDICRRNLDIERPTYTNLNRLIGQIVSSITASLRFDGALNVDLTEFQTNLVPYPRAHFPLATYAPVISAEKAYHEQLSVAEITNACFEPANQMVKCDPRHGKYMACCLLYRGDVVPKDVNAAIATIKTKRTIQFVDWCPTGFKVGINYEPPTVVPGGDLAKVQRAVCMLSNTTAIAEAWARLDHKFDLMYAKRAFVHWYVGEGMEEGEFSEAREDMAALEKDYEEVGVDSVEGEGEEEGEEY

For the compound `CC(=O)O[C@H]1C(=O)[C@]2(C)[C@@H](OC(=O)c3ccc(N=[N+]=[N-])cc3)C[C@H]3OC[C@@]3(OC(C)=O)[C@H]2[C@H](OC(=O)c2ccccc2)[C@]2(O)C[C@H](OC(=O)[C@H](O)[C@@H](NC(=O)c3ccccc3)c3ccccc3)C(C)=C1C2(C)C`, the ED50 ratio was determined as 30 in the assay with B16 and 21.4 in assay [1]. In the case of `CC(=O)O[C@H]1C(=O)[C@@]2(C)[C@H]([C@H](OC(=O)c3ccccc3)[C@]3(O)C[C@H](OC(=O)[C@H](O)[C@@H](NC(=O)c4ccc(N=[N+]=[N-])cc4)c4ccccc4)C(C)=C1C3(C)C)[C@]1(OC(C)=O)CO[C@@H]1C[C@@H]2O`, the results for the ED50 ratio (in the assay with B16; in assay [1]) were 4.6 and 2, respectively. Take `CC(=O)O[C@H]1C(=O)[C@@]2(C)[C@H]([C@H](OC(=O)c3ccccc3)[C@]3(O)C[C@H](OC(=O)[C@H](O)[C@@H](NC(=O)c4c(F)c(F)c(N=[N+]=[N-])c(F)c4F)c4ccccc4)C(C)=C1C3(C)C)[C@]1(OC(C)=O)CO[C@@H]1C[C@@H]2O`: the ED50 ratio in the assay with B16 was 14.8; in assay [1], 4.6. For `CC(=O)O[C@H]1C(=O)[C@]2(C)[C@@H](OC(=O)c3c(F)c(F)c(N=[N+]=[N-])c(F)c3F)C[C@H]3OC[C@@]3(OC(C)=O)[C@H]2[C@H](OC(=O)c2ccccc2)[C@]2(O)C[C@H](OC(=O)[C@H](O)[C@@H](NC(=O)c3ccccc3)c3ccccc3)C(C)=C1C2(C)C`, the ED50 ratio in assay [1] was > 22.4.
